This note sets out measurements from patent US20140041064A1, “COMPOSITIONS AND METHODS FOR I[…] FACTORS AND ANTI-FUNGAL AGENTS” (WORCESTER POLYTECHNIC INSTITUTE, priority 2011, published 2014).

Structures are written as SMILES.

Assay [1] concerns Macrophage cell line RAW 264.7. The following applies: 0.05 μM DPI; RAW 264.7 macrophages co-cultured overnight with wild type, cap1Δ/Δ and CAP1-complemented C. albicans (1:15).
Method: Macrophage cell line RAW 264.7 (ATCC) was used in the assay. The cell line was maintained in DMEM supplemented with 10% fetal bovine serum (FBS). […] Briefly, macrophages on reaching 80-90% confluence were scraped and brought up in DMEM supplemented with 10% FBS and 100 U/ml penicillin and 100 μg/ml streptomycin. 2×10^6 macrophage cells were plated in a 35 mm^2 plate and allowed to adhere for 5 hours. Candida strains were grown overnight at 37° C., diluted 1:10, and allowed to grow for another 5 hours. Candida cells were then washed with supplemented DMEM and were added to the plates containing macrophages in a ratio of 1:15 macrophage and to a final volume of 2 ml. Yeast strain was also grown in parallel without macrophages to calculate % survival. The plates were incubated overnight at 37° C. and 5% CO2. Cells were then brought up to 24 mls in a tube using 0.05% Triton X-100 (v/v) in water to osmotically lyse the macrophage cells. Dilutions were prepared and plated on a YPD plate and grown overnight at 37° C. Colony forming units (CFU) were counted and percentage survival was calculated by taking the ratio of CFU from co culture of Candida and macrophage to the CFU obtained for Candida alone.
Experiments involving diphenyleneiodium chloride (DPI) were performed as mentioned above but with the addition of 0.05 μM DPI from a 31.8 mM stock solution in DMSO. […]
Assay [2] deals with C. albicans. The following applies: hydrogen peroxide at a final concentration of 2 mM; 20° C., 30° C. and 37° C. On the procedure:
In vitro, Cap1 regulates the response to oxidative stress, which is a key component of the innate immune response to fungi (Alarco et al., J. Bacteriol. 181:700-708.3, 1999); Enjalbert et al., Mol. Biol. Cell. 17:1018-1032, 2006; Wang et al., Free Radic. Biol. Med. 40:1201-1209, 2006; Zhang et al., Mol. Microbiol. 36:618-629, 2000) and is induced in the presence of neutrophils (Fradin et al., Mol. Microbiol. 56:397-415, 2005). To correlate these studies performed at 30° C. and 37° C., respectively, with our in vivo infection performed at 20° C., we compared the ROS sensitivity profiles of cap1Δ/Δ, CAP1-complemented and the cognate wild type strain at 20° C., 30° C. and 37° C.

As for `c1ccc2c(c1)[I+]c1ccccc1-2` [DPI, Diphenyleneiodonium chloride], the “CFUs of C. albicans recovered from macrophages” value in assay [1] is on record as “no difference in CFUs recovered from macrophages between the three strains”.

For `OO` [hydrogen peroxide], in assay [2], the “growth of CAP1-complemented strain” value was “same growth as the wild type” and the “growth of reconstructed cap1Δ mutant” value is on record as “failed to grow”.
